Read-outs that look alike come from different tables or passages of the source.
How the values were obtained:
[1] = Pharmacokinetic study in rats, single intramuscular injection, plasma prodrug and parent drug by LC-MS/MS; format: in vivo, Sprague-Dawley rats
Experimental: General Procure: The formulations of opioid ester prodrugs are prepared to provide 180 mg/ml suspension by adding 1.8 g of prodrug to a 50 ml glass vial. To the solids is added […] of injection vehicle (2-3% sodium CMC, 0.2% polysorbate 20 in phosphate buffered saline (PBS) pH 7). The resulting mixture is sonicated for 10 min and left standing. The contents of the vial is then shaken until a uniform, clump-free suspension is obtained prior to dosing.
Twelve male Male Sprague-Dawley rats with a body weight approximately 250 g are used in the study. A single intramuscular injection of ester prodrug (180 mg) is administered to rats. Blood samples is collected at 0 (pretreatment) 0.5, 1, 2, 4, 8, 12 and 24 days after administration. Blood is collected with commercially available plastic tubes containing a clot activator. Within 10 min of collection, blood is centrifugation at 2.500 g for 10 min. Plasma is separated and frozen at −18° C. until analyzed by LC-MS/MS. Both prodrug and its corresponding parent drug are analyzed. The pharmacokinetic parameters (AUC, Tmax, Cmax, T1/2, etc) of the test articles are compared to compare the performance of prodrugs to their parent drugs.
Pharmacokinetic Studies for Compounds 2, 3, and 7. Pharmacokinetic studies were conducted for three compounds (Compounds 2, 3 and 7) in rats. The formulations were prepared either in sesame oil (Compound 2, 100 mg eq/mL) or aqueous suspension (Compounds 3 and 7, 100 mg eq/mL and 60 mg eq/mL, respectively). The dosage “eq” refers to the equivalent dosing amount of the respective parent drug, e.g., oxymorphone or hydromorphone in this Example. The sesame oil formulation contains 1.2% benzyl alcohol. The suspension formulation was prepared in PBS buffer containing 2% CMC and 0.2% Tween 80. The particle sizes of the testing compounds in suspension were kept under 10 micron. Both oil and suspension formulations were sterilized by electronic beam before administered to Sprague-Dawley rats.
Twelve Male Sprague-Dawley rats with body weight of approximately 250 gram were randomly divided into three groups. The rats were housed in cages for at least 5 days prior to entering the study and had free access to standard pellets and water during the period. The formulations (0.05 mL) were administered to rats by intra muscular injection via hind leg. Blood (0.10 mL) was sampled by individual tail vein puncture at the following time points: 0.5, 2, 8 hours, 1, 3, 6, 13, 27 days post-dose. Blood was collected into K2EDTA coated tubes and centrifuged at 4° C. at 2000 g in for 10 min to obtain plasma. Plasma (0.05 mL) was immediately quenched with 100 uL methanol/acetonitrile (1:1) containing 50 ng/mL ISTD (Terfenadine and Buspirone). The mixture was vortexed for 1 min and centrifuged at 4000 rpm for 15 min. Supernatant was diluted 2 fold with 0.1% FA in water for injection. Both prodrug and the drug were analyzed using LC-MS/MS on AB Sciex API 5500. The pharmacokinetic parameters were calculated and reported as following.

[2] = monomeric fatty acid, aqueous; Vorum et al. 1992; cited from earlier work
[3] = analyte prodrug Compound 7 in plasma, Compound 7 IM 102.5 mg/kg, aqueous suspension, N = 4, mean
[4] = male, Sprague-Dawley, rat, analyte prodrug Compound 7 in plasma, Compound 7 IM 102.5 mg/kg, aqueous suspension, N = 4, mean
[5] = analyte prodrug Compound 3 in plasma, Compound 3 IM 119.14 mg/kg, aqueous suspension, N = 4, mean
[6] = oxymorphone / Compound 3, Compound 3 IM 119.14 mg/kg, N = 4, mean
[7] = analyte prodrug Compound 2 in plasma, Compound 2 IM 29.7 mg/kg, sesame oil formulation, Rat #14
[8] = analyte prodrug Compound 2 in plasma, Compound 2 IM 118.11 mg/kg, sesame oil formulation, Rat #1-3, mean
[9] = oxymorphone / Compound 2, Compound 2 IM 29.7 mg/kg, Rat #14
[10] = oxymorphone / Compound 2, Compound 2 IM 118.11 mg/kg, Rat #1-3, mean

CCCCCCCCCCCCCCCCCCCC(=O)Oc1ccc2c3c1O[C@H]1C(=O)CC[C@H]4[C@@H](C2)N(C)CC[C@]314 [Compound 7, Hydromorphone eicosanate]
AUC Extr [1, 3]: 4.36%
AUCInf/D [1, 3]: 27.8 kg·ng·h/mL/mg
AUC(0-inf) [1, 4]: 2850 ng·h/mL
AUC(0-t) [1, 4]: 2760 ng·h/mL
MRT inf [1, 4]: 138 h
half-life [1, 4]: 64.4 h
Cmax ([1]; male, Sprague-Dawley, rat, analyte prodrug Compound 7 in plasma, Compound 7 IM 102.5 mg/kg, aqueous suspension, N = 4, mean, read-out: Cmax): 45.6 ng/mL
tmax ([1]; male, Sprague-Dawley, rat, analyte prodrug Compound 7 in plasma, Compound 7 IM 102.5 mg/kg, aqueous suspension, N = 4, mean, read-out: tmax): 6.13 h

CCCCCCCCCCCC(=O)O [laurate]
solubility [2]: greater than 500 μM

CCCCCCCCCCCCCC(=O)O [myristate]
solubility [2]: 20 to 30 µM

Oxymorphone eicosanate [Compound 3]
AUC Extr ([1]; analyte parent drug oxymorphone in plasma, Compound 3 IM 119.14 mg/kg, aqueous suspension, N = 4, mean): 63.7%
AUC Extr [1, 5]: 29.9%
AUCInf [1, 5]: 2355 ng·h/mL
AUCInf/D [1, 5]: 19.8 kg·ng·h/mL/mg
AUClast [1, 5]: 1711 ng·h/mL
Cmax [1, 5]: 4.79 ng/mL
MRTInf [1, 5]: 484 h
t1/2 [1, 5]: 263 h
tmax [1, 5]: 212 h
AUClast Ratio (Parent/Pro) [1, 6]: 4.44
Cmax Ratio (Parent/Pro) [1, 6]: 3.22

Oxymorphone hexadecanate [Compound 2]
AUC Extr ([1]; analyte parent drug oxymorphone in plasma, Compound 2 IM 29.7 mg/kg, sesame oil formulation, Rat #14): 0.99%
AUC Extr ([1]; analyte parent drug oxymorphone in plasma, Compound 2 IM 118.11 mg/kg, sesame oil formulation, Rat #1-3, mean): 5.71%
AUC Extr [1, 7]: 42.6%
AUCInf [1, 7]: 30.3 ng·h/mL
AUCInf/D [1, 7]: 1.02 kg·ng·h/mL/mg
AUClast [1, 7]: 17.4 ng·h/mL
Cmax [1, 7]: 0.54 ng/mL
MRTInf [1, 7]: 108 h
t1/2 [1, 7]: 76 h
tmax [1, 7]: 2.00 h
AUC Extr [1, 8]: 39.8%
AUCInf [1, 8]: 101 ng·h/mL
AUCInf/D [1, 8]: 0.857 kg·ng·h/mL/mg
AUClast [1, 8]: 51.3 ng·h/mL
Cmax [1, 8]: 1.62 ng/mL
MRTInf [1, 8]: 156 h
t1/2 [1, 8]: 130 h
tmax [1, 8]: 3.50 h
AUClast Ratio (Parent/Pro) [1, 9]: 151
Cmax Ratio (Parent/Pro) [1, 9]: 21
AUClast Ratio (Parent/Pro) [1, 10]: 161
Cmax Ratio (Parent/Pro) [1, 10]: 63.7
